Measured values: PubChem BioAssay (NCI)
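How tested: cells in 96-well plates exposed to compound for 48 hours at five concentrations. TGI: concentration producing complete growth inhibition.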

What was measured:
Assay in all cases: NCI anticancer screen, dose series, 48 h
[1] = system: SF-295 CNS
[2] = system: BT-549 breast
[3] = system: MALME-3M melanoma
[4] = system: MDA-MB-231 breast
[5] = system: KM12 colon
[6] = system: T-47D breast
[7] = system: RPMI-8226 leukemia
[8] = system: PC-3 prostate
[9] = system: OVCAR-4 ovarian
[10] = system: OVCAR-8 ovarian
[11] = system: U251 CNS
[12] = system: SW-620 colon
[13] = system: NCI-H23 lung
[14] = system: HCT-15 colon
[15] = system: SK-MEL-5 melanoma
[16] = system: MDA-N
[17] = system: IGROV1 ovarian
[18] = system: HCT-116 colon
[19] = system: HT29 colon
[20] = system: SK-OV-3 ovarian
[21] = system: RXF 393 renal
[22] = system: EKVX NSCLC
[23] = system: K-562 leukemia
[24] = system: NCI/ADR-RES ovarian
[25] = system: HOP-92 NSCLC
[26] = system: SR leukemia
[27] = system: SN12C renal
[28] = system: OVCAR-3 ovarian
[29] = system: MDA-MB-435
[30] = system: A498 renal
[31] = system: LOX IMVI melanoma
[32] = system: CAKI-1 renal
[33] = system: HOP-62 NSCLC
[34] = system: UACC-62 melanoma
[35] = system: 786-0 renal
[36] = system: COLO 205 colon
[37] = system: UACC-257 melanoma
[38] = system: TK-10 renal
[39] = system: SK-MEL-2 melanoma
[40] = system: NCI-H226 lung
[41] = system: SK-MEL-28 melanoma
[42] = system: NCI-H522 lung
[43] = system: OVCAR-5 ovarian
[44] = system: ACHN renal
[45] = system: SNB-19 CNS
[46] = system: MOLT-4 leukemia
[47] = system: A549 NSCLC
[48] = system: SF-268 CNS
[49] = system: SF-539 CNS
[50] = system: M14 melanoma
[51] = system: DU-145 prostate
[52] = system: SNB-75 CNS
[53] = system: MCF7 breast
[54] = system: HS 578T breast
[55] = system: NCI-H460 lung
[56] = system: HCC-2998 colon
[57] = system: UO-31 renal
[58] = system: CCRF-CEM leukemia

SMILES: Cc1ncc(CSc2ccccc2N)c(CO)c1O
- TGI [1]: > 100 µM
- TGI [2]: > 100 µM
- TGI [3]: > 100 µM
- TGI [4]: > 100 µM
- TGI [5]: > 100 µM
- TGI [6]: > 100 µM
- TGI [7]: > 100 µM
- TGI [8]: > 100 µM
- TGI [9]: > 100 µM
- TGI [10]: > 100 µM
- TGI [11]: > 100 µM
- TGI [12]: > 100 µM
- TGI [13]: > 100 µM
- TGI [14]: > 100 µM
- TGI [15]: > 100 µM
- TGI [16]: > 100 µM
- TGI [17]: > 100 µM
- TGI [18]: > 100 µM
- TGI [19]: > 100 µM
- TGI [20]: > 100 µM
- TGI [21]: > 100 µM
- TGI [22]: > 100 µM
- TGI [23]: > 100 µM
- TGI [24]: > 100 µM
- TGI [25]: > 100 µM
- TGI [26]: > 100 µM
- TGI [27]: > 100 µM
- TGI [28]: > 100 µM
- TGI [29]: > 100 µM
- TGI [30]: > 100 µM
- TGI [31]: > 100 µM
- TGI [32]: > 100 µM
- TGI [33]: > 100 µM
- TGI [34]: > 100 µM
- TGI [35]: > 100 µM
- TGI [36]: > 100 µM
- TGI [37]: > 100 µM
- TGI [38]: > 100 µM
- TGI [39]: > 100 µM
- TGI [40]: > 100 µM
- TGI [41]: > 100 µM
- TGI [42]: > 100 µM
- TGI [43]: > 100 µM
- TGI [44]: > 100 µM
- TGI [45]: > 100 µM
- TGI [46]: > 100 µM
- TGI [47]: > 100 µM
- TGI [48]: > 100 µM
- TGI [49]: > 100 µM
- TGI [50]: > 100 µM
- TGI [51]: > 100 µM
- TGI [52]: > 100 µM
- TGI [53]: > 100 µM
- TGI [54]: > 100 µM

SMILES: CC1OC(OC2C(O)COC(OC3C(C)OC(OC4C(OC(=O)[C@]56CCC(C)(C)C[C@@H]5C5=CCC7[C@@]8(C)C[C@H](O)[C@H](OC9OC(CO)C(O)C(O)C9O)[C@@](C)(CO)[C@@H]8CC[C@@]7(C)[C@]5(C)CC6)OCC(O)C4O)C(O)C3OC3OCC(O)C(O)C3O)C2O)C(O)C(O)C1O (stereo not given in full)
- TGI [1]: 39.2 µM
- TGI [2]: 52.6 µM
- TGI [3]: 54.7 µM
- TGI [4]: 31 µM
- TGI [5]: 72.9 µM
- TGI [6]: 44.8 µM
- TGI [7]: > 100 µM
- TGI [8]: 29.5 µM
- TGI [9]: 48.8 µM
- TGI [10]: 37.3 µM
- TGI [11]: 39.1 µM
- TGI [12]: 32.2 µM
- TGI [13]: 40.8 µM
- TGI [55]: 41.6 µM
- TGI [14]: 51.4 µM
- TGI [15]: 36.2 µM
- TGI [16]: 35.2 µM
- TGI [18]: 38.5 µM
- TGI [20]: 34.7 µM
- TGI [21]: 34.1 µM
- TGI [22]: 23.8 µM
- TGI [23]: > 100 µM
- TGI [24]: 46 µM
- TGI [25]: 44 µM
- TGI [26]: 46.1 µM
- TGI [27]: 35 µM
- TGI [28]: 37.9 µM
- TGI [29]: 44.8 µM
- TGI [56]: 33.9 µM
- TGI [30]: 32.7 µM
- TGI [31]: 37 µM
- TGI [32]: 26.8 µM
- TGI [33]: 35.4 µM
- TGI [34]: 41.1 µM
- TGI [35]: 29.2 µM
- TGI [36]: 19.3 µM
- TGI [37]: 31.7 µM
- TGI [38]: 33 µM
- TGI [39]: 37.9 µM
- TGI [40]: 46.1 µM
- TGI [41]: 25.9 µM
- TGI [42]: 62.4 µM
- TGI [43]: 30.2 µM
- TGI [57]: 17.6 µM
- TGI [44]: 36.1 µM
- TGI [45]: 33.7 µM
- TGI [58]: 34.9 µM
- TGI [46]: 46 µM
- TGI [47]: 28.2 µM
- TGI [48]: 47.5 µM
- TGI [49]: 36.3 µM
- TGI [50]: 23.2 µM
- TGI [51]: 36.2 µM
- TGI [52]: 41.1 µM
- TGI [53]: 43.8 µM
- TGI [54]: 63.9 µM
